From patent US7432350B2 (priority 2002, dated 2008)
pKd, pKi: −log10 of the molar value. Read-outs that look alike come from different tables or passages of the source.

What was measured:
[1] = target: S. cerevisiae ACCase BC domain, wild type (pCS16), N-terminal His-tag (Saccharomyces cerevisiae, UniProt Q00955); assay: biochemical; format: binding
[2] = target: Magnaporthe grisea ACCase BC domain (pCS17), N-terminal His-tag (Pyricularia oryzae, UniProt G4N2L8); assay: biochemical; format: binding
[3] = target: Phytophthora infestans ACCase BC domain, amino acids 1-555 (pCS15) (Phytophthora infestans, UniProt D0NZ18); assay: biochemical; format: binding
[4] = target: full-length Ustilago ACCase (pCS11 protein), C-terminal His-tag (Mycosarcoma maydis, UniProt A0A0D1DYD5); assay: biochemical
[5] = target: human ACC1 BC domain (pCS19), C-terminal His-tag (Homo sapiens, UniProt Q13085, Q299K); assay: biochemical; format: binding
[6] = tested on: Ustilago BC domain (pCS8); assay: soraphen off-rate determination (dissociation experiments); format: binding, Ustilago maydis
Description: Soraphen off-rate determination. […] Therefore, soraphen dissociation experiments were performed to determine the off-rate for the binding interaction using the Ustilago BC domain (pCS8). 53.6 pmol pCS8 protein was incubated with 30 pmol ^3H-soraphen in a volume of 2 ml for 15 min. The protein with bound soraphen was separated from free soraphen on NAP5 columns and eluted in a total of 4 ml. Cold soraphen was added to 2 μM and dissociation of the bound soraphen was followed by removing 0.5 ml aliquots at various times and applying them to NAP 5 columns to again separate bound from free radiolabel. The ^3H-soraphen in the eluted fractions was quantified by liquid scintillation counting and the data were fit to the following equation: Y=Ymax*e^−k1+NS (FIG. 14).

BC domain (pCS8) = assay: competitive binding assay with 3H-soraphen, pCS8; parameters: species or system Ustilago maydis; conditions: positive control, 1 hr incubation; protein (pCS8 or pCS11) not stated; data not shown; read-out: Ki estimate, competitor vs 3H-soraphen
Description: Binding assays were conducted to detect binding to the BC domain, and thus, enabled identification of test compounds. Methods of conducting binding assays are well known in the art. Direct measurement of the binding of radiolabeled ligands is typically performed by incubating numerous concentrations of radioligand with a constant amount of target peptide under equilibrium binding conditions followed by determining the amount of labeled probe specifically bound. “Specifically bound” is defined as total binding minus non-specific binding, where non-specific binding is determined in the presence of excess unlabled ligand. […] The dissociation constant of the BC domain complexes, for example for soraphen, is from about 10^−4 to about 10^−14 M, and preferably at 10^−7 M to 10^−14 M, and more preferably at least 10^−8 M to 10^−14 M, and still more preferably lower than 2×10^−9 M. Complexes can be formed by covalent or noncovalent interactions. […] A competition binding assay is performed by incubating a constant concentration of target protein and radiolabled ligand with numerous concentrations of test compounds under equilibrium conditions followed by determining the amount of radiolabeled ligand that is specifically bound.
Competitive Binding Assay. […] Bound ^3H-soraphen was then separated from unbound on NAP 5 columns and quantified by scintillation counting. […]

[7] = target: WT enzyme (endogenous ACCase, wild type yeast) (Saccharomyces cerevisiae, UniProt Q00955); conditions: cited from earlier work
[8] = target: Ustilago maydis ACCase BC domain (pCS8); assay: 3H-soraphen saturation binding assay, pCS8; conditions: non-linear regression fit, one site, read-out: KD of the soraphen-pCS8 interaction
[9] = tested on: Mutant enzyme (endogenous ACCase, mutant yeast); conditions: cited from earlier work
[10] = target: pCS204 (wild type full length S. cerevisiae ACCase) (Saccharomyces cerevisiae, UniProt Q00955); format: biochemical
[11] = tested on: Magnaporthe grisea BC domain (pCS17); format: binding
[12] = tested on: Phytophthora infestans ACCase BC domain (pCS15); format: binding; conditions: recombinantly expressed
E. coli BC (pCS201) = E. coli BC (pCS201) (Escherichia coli, UniProt P24182); assay: 3H-soraphen binding, negative control pCS201
[13] = target: human ACC1 BC domain (pCS19) (Homo sapiens, UniProt Q13085, Q299K); assay: soraphen binding, human ACC1 BC domain
Ustilago ACCase = conditions: published value (Behrbohm thesis 1996); read-out: Ki for soraphen inhibition of Ustilago ACCase activity; cited from earlier work
[14] = target: full length Ustilago ACCase (pCS11); assay: 3H-soraphen binding, full-length pCS11; parameters: species or system Ustilago maydis

Sequence of pCS204 (wild type full length S. cerevisiae ACCase) (Q00955 whole entry, the tested form may be a part): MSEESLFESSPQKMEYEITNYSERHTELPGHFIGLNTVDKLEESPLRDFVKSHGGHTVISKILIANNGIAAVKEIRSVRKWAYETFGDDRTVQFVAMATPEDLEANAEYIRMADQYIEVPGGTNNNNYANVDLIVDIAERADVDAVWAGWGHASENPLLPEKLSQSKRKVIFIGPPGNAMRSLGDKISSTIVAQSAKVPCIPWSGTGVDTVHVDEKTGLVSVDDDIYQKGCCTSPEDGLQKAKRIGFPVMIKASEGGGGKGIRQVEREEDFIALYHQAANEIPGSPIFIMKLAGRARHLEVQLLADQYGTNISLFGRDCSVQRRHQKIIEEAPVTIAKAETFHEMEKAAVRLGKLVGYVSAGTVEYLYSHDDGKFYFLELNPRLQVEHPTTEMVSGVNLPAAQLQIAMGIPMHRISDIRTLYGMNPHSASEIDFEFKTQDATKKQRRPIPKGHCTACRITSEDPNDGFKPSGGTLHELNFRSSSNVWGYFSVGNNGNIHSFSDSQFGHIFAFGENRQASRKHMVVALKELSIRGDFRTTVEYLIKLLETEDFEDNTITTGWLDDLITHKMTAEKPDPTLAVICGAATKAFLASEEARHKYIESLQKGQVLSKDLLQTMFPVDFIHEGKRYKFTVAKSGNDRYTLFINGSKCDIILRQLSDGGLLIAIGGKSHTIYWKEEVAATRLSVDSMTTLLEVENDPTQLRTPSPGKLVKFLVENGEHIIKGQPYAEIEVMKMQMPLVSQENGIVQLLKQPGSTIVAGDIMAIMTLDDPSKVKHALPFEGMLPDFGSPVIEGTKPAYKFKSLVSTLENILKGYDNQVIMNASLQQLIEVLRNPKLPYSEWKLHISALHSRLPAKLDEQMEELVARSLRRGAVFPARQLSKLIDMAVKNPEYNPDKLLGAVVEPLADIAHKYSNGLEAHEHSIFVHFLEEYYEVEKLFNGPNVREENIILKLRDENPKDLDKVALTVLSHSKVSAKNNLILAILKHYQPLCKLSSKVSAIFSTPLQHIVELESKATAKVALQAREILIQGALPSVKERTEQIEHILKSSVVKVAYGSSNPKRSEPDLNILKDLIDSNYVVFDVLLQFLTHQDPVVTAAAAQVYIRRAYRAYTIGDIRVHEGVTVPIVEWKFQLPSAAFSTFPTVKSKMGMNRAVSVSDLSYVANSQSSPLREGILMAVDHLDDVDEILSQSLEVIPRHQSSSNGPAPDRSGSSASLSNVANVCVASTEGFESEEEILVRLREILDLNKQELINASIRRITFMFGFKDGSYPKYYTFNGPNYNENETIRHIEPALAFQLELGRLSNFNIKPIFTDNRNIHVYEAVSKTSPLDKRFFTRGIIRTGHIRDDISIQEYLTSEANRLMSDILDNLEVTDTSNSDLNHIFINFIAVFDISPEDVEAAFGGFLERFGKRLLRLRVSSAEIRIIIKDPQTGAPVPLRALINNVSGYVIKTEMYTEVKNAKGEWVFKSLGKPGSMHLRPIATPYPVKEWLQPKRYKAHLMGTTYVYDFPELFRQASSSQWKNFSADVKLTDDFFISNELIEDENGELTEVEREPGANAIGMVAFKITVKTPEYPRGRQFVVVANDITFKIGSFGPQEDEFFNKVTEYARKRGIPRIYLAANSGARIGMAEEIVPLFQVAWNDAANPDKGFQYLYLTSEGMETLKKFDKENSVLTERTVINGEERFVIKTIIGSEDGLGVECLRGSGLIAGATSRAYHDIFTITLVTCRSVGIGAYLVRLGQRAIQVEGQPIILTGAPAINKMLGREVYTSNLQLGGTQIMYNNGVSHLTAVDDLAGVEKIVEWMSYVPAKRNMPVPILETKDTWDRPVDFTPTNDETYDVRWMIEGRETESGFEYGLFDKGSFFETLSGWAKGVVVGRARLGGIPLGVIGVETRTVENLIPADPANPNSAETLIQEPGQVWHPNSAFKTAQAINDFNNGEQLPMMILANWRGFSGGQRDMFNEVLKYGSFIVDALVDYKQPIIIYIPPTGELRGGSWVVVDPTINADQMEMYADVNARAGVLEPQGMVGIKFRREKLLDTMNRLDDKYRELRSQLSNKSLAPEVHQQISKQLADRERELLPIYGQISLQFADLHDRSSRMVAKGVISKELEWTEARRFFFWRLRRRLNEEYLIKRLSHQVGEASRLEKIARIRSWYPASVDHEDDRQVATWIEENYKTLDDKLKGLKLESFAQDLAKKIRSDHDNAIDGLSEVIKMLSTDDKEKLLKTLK
Sequence of WT enzyme (endogenous ACCase, wild type yeast) (Q00955 whole entry, the tested form may be a part): as above
Sequence of S. cerevisiae ACCase BC domain, wild type (pCS16), N-terminal His-tag (Q00955 2-581): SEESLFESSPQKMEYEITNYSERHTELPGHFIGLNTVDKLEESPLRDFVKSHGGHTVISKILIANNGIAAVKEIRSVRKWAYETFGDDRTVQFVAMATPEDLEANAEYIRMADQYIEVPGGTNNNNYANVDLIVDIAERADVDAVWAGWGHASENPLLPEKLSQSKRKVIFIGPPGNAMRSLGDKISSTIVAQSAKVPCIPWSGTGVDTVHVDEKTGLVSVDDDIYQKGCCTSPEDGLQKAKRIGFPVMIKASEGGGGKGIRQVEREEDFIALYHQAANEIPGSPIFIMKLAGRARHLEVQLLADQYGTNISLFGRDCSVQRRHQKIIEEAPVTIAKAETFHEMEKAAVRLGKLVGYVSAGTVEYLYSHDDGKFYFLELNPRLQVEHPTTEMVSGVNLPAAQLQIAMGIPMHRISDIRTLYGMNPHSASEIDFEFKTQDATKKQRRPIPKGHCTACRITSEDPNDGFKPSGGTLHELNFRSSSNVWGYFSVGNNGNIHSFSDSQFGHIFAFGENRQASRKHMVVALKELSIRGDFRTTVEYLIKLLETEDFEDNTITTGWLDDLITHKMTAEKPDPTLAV

With `CO[C@H]1CCCC[C@@H](c2ccccc2)OC(=O)[C@@H](C)[C@@]2(O)O[C@H]([C@@H](C)[C@H](O)[C@H]2OC)[C@@H](C)/C=C/[C@H]1OC` [Soraphen, soraphen A] as the molecule, how does the pKd [1] read?
Its pKd is 8.89.

What about the pKd [2] of the same molecule?
The pKd was 9.40.

What about the pKd [3] of the same molecule?
The pKd was 9.40.

What about the pKi [4] of the same molecule?
Its pKi is 8.66.

And the pKd [5]?
The pKd was 9.15.

Which “half-life of dissociation (off rate)” value ([6]; 3H-soraphen displaced with 2 μM cold soraphen) does the source give for `CO[C@H]1CCCC[C@@H](c2ccccc2)OC(=O)[C@@H](C)[C@@]2(O)O[C@H]([C@@H](C)[C@H](O)[C@H]2OC)[C@@H](C)/C=C/[C@H]1OC` [soraphen A] here?
Its value is 10.7 min.

What about the “kon (on-rate)” value ([6]; calculated from Kd=koff/kon) of the same molecule?
The value was 931000 M⁻¹ s⁻¹.

And the pKi (BC domain (pCS8))?
The pKi was 8.96.

What about the “Relative Enzymatic Activity (%), WT enzyme” value ([7]; +1.5 ng/mL soraphen A) of the same molecule?
The value was 71.8%.

What about the “Relative Enzymatic Activity (%), WT enzyme” value ([7]; +1.5 μg/mL soraphen A) of the same molecule?
The value was 1.0%.

What about the “Relative Enzymatic Activity (%), WT enzyme” value ([7]; +150 μg/mL soraphen A) of the same molecule?
The value was 0.8%.

What about the pKd [8] of the same molecule?
The pKd was 8.82.

And the “Relative Enzymatic Activity (%), Mutant enzyme” value ([9]; +1.5 ng/mL soraphen A)?
The value was 79.4%.

What about the “Relative Enzymatic Activity (%), Mutant enzyme” value ([9]; +1.5 μg/mL soraphen A) of the same molecule?
Its value is 74.9%.

And the “Relative Enzymatic Activity (%), Mutant enzyme” value ([9]; +150 μg/mL soraphen A)?
Its value is 74.7%.

And the “Relative Enzymatic Activity (%), pCS204” value ([10]; +1.5 ng/mL soraphen A)?
Its value is 92.0%.

What about the “Relative Enzymatic Activity (%), pCS204” value ([10]; +1.5 μg/mL soraphen A) of the same molecule?
The value was 11.6%.

What about the “Relative Enzymatic Activity (%), pCS204” value ([10]; +150 μg/mL soraphen A) of the same molecule?
Its value is 7.5%.

What about the “soraphen binding to Magnaporthe BC domain” value [11] of the same molecule?
Its value is “high affinity”.

What about the “soraphen binding to Phytopthora BC domain” value [12] of the same molecule?
Its value is “high-affinity”.

What about the “soraphen binding to pCS201” value (E. coli BC (pCS201)) of the same molecule?
Its value is “did not exhibit high affinity soraphen binding”.

What about the “soraphen binding to purified pCS19 protein” value [13] of the same molecule?
Its value is “high affinity”.

What about the pKi (Ustilago ACCase) of the same molecule?
The pKi was 8.85.

What about the pKd [14] of the same molecule?
Its pKd is 8.80.

Which “Relative Enzymatic Activity (%), WT enzyme” value ([7]; +250 μg/ml avidin) does the source give for “avidin: avidin, inhibitor of the biotin-dependent ACCase activity in Table 4” here?
The value was 0.4%.

And the “Relative Enzymatic Activity (%), Mutant enzyme” value ([9]; +250 μg/ml avidin)?
The value was 0.1%.

What about the “Relative Enzymatic Activity (%), pCS204” value ([10]; +250 μg/ml avidin) of the same molecule?
Its value is 2.1%.
